According to ChEMBL document CHEMBL3507680, “University of Dundee, Gates Library screen for HepG2 cell viability”:

Assay: Human HepG2 cell viability assay in 384 well format
Type: toxicity, cell-based
Parameters: dose 125 nL, time 70.5 hour; cytotoxicity at 70.5 h: concentration not given beside the values
Details: HepG2 cells, read-out: Inhibition

Row | SMILES | cytotoxicity at 70.5 h
1 | CC(C)CCOCCNC(=O)Nc1cc(C(F)(F)F)c[nH]c1=O | -2.4%
2 | Cc1cc(CC(=O)NC2CCCN(c3ccccc3F)C2=O)n[nH]1 (centres undefined) | 2.16%
3 | COC(=O)Cn1c(=O)cc(C(F)F)c2c(C)nn(CC(F)F)c21 | -8.33%
4 | COc1ncccc1C(=O)N1CC[C@H]2C[C@@H](C)O[C@@H]2C1 | -21.5%
5 | COc1ccc(CNC(=O)Nc2cccnc2N2CCCC2)cc1O | -8.02%
6 | O=C(Nc1nc2c(s1)CN(S(=O)(=O)C1CC1)CC2)c1cccc(Cl)c1 | 8.23%
7 | O=C(NCCc1cc(N2CCOCC2)nc(NC2CC2)n1)C1CCCO1 (centres undefined) | -6.3%
8 | O=C(CCOc1ccc(Br)cc1)N1CCN(c2cnccn2)CC1 | 24.8%
9 | O=C1CC2(CCSC2)C(=O)N1Cc1coc(-c2ccc(F)cc2)n1 (centres undefined) | -3.42%
10 | CN(Cc1cccs1)C(=O)c1ccc(=O)n(C)c1 | -5.37%
11 | COc1ccc(-c2nc(CN3CC(n4cc(C)cn4)C3)no2)cc1 | -4.24%
12 | COCCC(=O)NCCCOC1CCCc2ccccc21 (centres undefined) | 1.55%
13 | CCC(NS(=O)(=O)N1CCOCC1)c1ccccc1OC (centres undefined) | -2.95%
14 | Cc1ccc(CN2CC[C@@H]3[C@@H]2CCN3C(=O)Cc2cccs2)o1 | -5.34%
15 | CC(C)c1cc(C(=O)N(c2ccc(F)cn2)C2CCOCC2)on1 | 1.54%
16 | CSCCc1c(-c2ccccc2)ncn1CCNc1cccnc1 | -8.03%
17 | Cc1ccc(NC(=O)N2C[C@H]3CC[C@@H]2CN(Cc2cscn2)C3)cc1 | -6.47%
18 | Cc1nc(CN2CC3(CCN(c4ncccn4)C3)CC2=O)cs1 (centres undefined) | -23.8%
19 | Nc1nccnc1C(=O)N(Cc1ccccc1O)CC1CCCO1 (centres undefined) | -13.9%
20 | O=C(NCCCn1cccn1)C1(c2ccccc2)CCOCC1 | -10.8%
21 | Cc1ccc(-c2ccnc(NC(c3ncccc3C)C3CC3)n2)c(C)n1 (centres undefined) | -3.87%
22 | CNc1ncc(CN(C)C(=O)c2cccc(CC3CCNCC3)c2)cn1 | 35%
23 | CC[C@H](C)[C@H](N)C(=O)Nc1nc(-c2cnc(N(C)C)nc2)cs1 | -0.629%

Row | SMILES | cytotoxicity at 70.5 h
24 | Cc1cccc(COC[C@H]2CC[C@H]3[C@H](CCN3Cc3ccco3)O2)n1 | -4.41%
25 | Cc1ccc(CNC(C)c2cc(F)ccc2N2CCN(C)CC2)o1 (centres undefined) | 0.758%
26 | O=C(NCc1nc(NC2CCCC2)c2cc(Cl)ccc2n1)c1ccoc1 | 5.65%
27 | NC(=O)C1CCN(C(=O)NCc2ccccc2-n2cccn2)C1 (centres undefined) | -4.02%
28 | CNC(=O)CN1CCCC12CCN(C(=O)c1ccsc1)CC2 | -6.13%
29 | COCCCNc1c(-c2ccc(Cl)cc2)c(=O)c1=O | 6.7%
30 | Cc1oncc1C(=O)N1CCC2(CC1)C(c1cnn(C)c1)CC(=O)N2C (centres undefined) | -9.68%
31 | CN(C)C(=O)CO[C@H]1CN(Cc2ccc3c(c2)OCO3)[C@@H]2COC[C@H]12 | -4.69%
32 | COc1ccccc1-c1ncc(CN2C[C@@H](N(C)C)[C@H](C(C)C)C2)s1 | -5.83%
33 | Cc1cncc(C(=O)N2CCCC3(CCCN3S(C)(=O)=O)C2)c1 (centres undefined) | -8.81%
34 | Cc1nn(C)c(Cl)c1C1CCCN1Cc1noc(C2CC2)n1 (centres undefined) | -9.55%
35 | COc1ccc(CNC(Cc2cccs2)c2nc(C)c(C)s2)cc1OC (centres undefined) | 2.99%
36 | Cc1nn(C)c2nc(-c3ccccn3)nc(NCCCOC(C)C)c12 | -0.266%
37 | CN(C(=O)Cn1nc(-c2ccc(F)cc2)oc1=O)c1ccccc1 | -11.5%
38 | Cc1cccc2sc(NC(=O)CN3CCC(C)CC3)nc12 | -7.07%
39 | COc1ccc(CN(C)CCS(=O)(=O)c2ccc(Cl)cc2)cc1OC | -12.9%
40 | COc1ccc(C2CCCN2Cc2nnnn2C2CC2)cc1OC (centres undefined) | -0.63%
41 | O=c1cc(N2CCCCC2)cnn1C[C@H](O)CO | -3.44%
42 | CCOCCN1CCC(c2cnccn2)CC1 | 21.8%
43 | Cc1ccc(S(=O)(=O)Nc2ccc(-n3cccc3C(=O)O)c(C)c2)s1 | -3.61%
44 | CCN1CCOCC12CCN(C(=O)C1CCC1)CC2 | 14.1%
45 | COCC1Cn2nnc(-c3cnn(C)c3)c2CN1Cc1ccoc1 (centres undefined) | -8.84%
46 | Cc1cccc(C2(O)CCN(C(=O)c3ccc(N(C)C)cc3)CC2)c1C | 9.92%

Row | SMILES | cytotoxicity at 70.5 h
47 | CN(Cc1ccc(Cl)s1)C(=O)NCc1nnc2n1CCC2 | 2.59%
48 | O=c1cc2c(nn1CN1CCC(c3ccccc3)CC1)CCC2 | -17.6%
49 | Cc1nnc(-c2cccc(C#N)c2)n1C1CCCN(C(C)C)C1=O (centres undefined) | -9.5%
50 | O=S(=O)(Cc1ccc(F)cc1F)NCCOc1cccnc1 | -18.9%
51 | Cc1cc(=O)[nH]c(=O)n1Cc1ccccc1 | -7.18%
52 | CCc1nc(CN(C(C)=O)C2CCN(CCc3cnn(C)c3)C2)no1 (centres undefined) | 21.3%
53 | Cc1noc(C)c1CN1CCCC2(CCN(C(=O)CC3CC3)C2)C1 (centres undefined) | 41.6%
54 | Cc1ncc2c(n1)CN(CC(=O)N1CCc3sccc3C1)CC2 | -1.15%
55 | CCn1cnnc1CNC(=O)c1ccc(Br)cc1F | 22.3%
56 | Cc1noc(CN(Cc2cccc(C#N)c2)Cc2ccco2)n1 | 0.0593%
57 | O=C(c1cnccn1)N1CCN2C[C@H](OCc3ccccn3)C[C@H]2C1 | -10.5%
58 | Cc1cnn(CC2CCCCN2Cc2nc(-c3ccoc3)no2)c1 (centres undefined) | -6.01%
59 | Cc1ncc2c(n1)CN(CC(=O)Nc1nncs1)CC2 | -6.76%
60 | COc1cc(OC)cc(C(=O)N2CCOCC2c2[nH]ncc2C)c1 (centres undefined) | 18%
61 | C[C@@H]1CN(CC(C)(C)N2CCOCC2)C[C@@]1(O)C1CC1 | -6.35%
62 | CN(CC(=O)NS(=O)(=O)c1ccc(F)cc1)Cc1ccccc1 | -3.97%
63 | CN(C)c1ccccc1CN1CCCC(N2CCCC2=O)C1 (centres undefined) | -8.7%
64 | CN(Cc1ccsc1)C(=O)c1cc(S(=O)(=O)N(C)C)ccc1Cl | -7.18%
65 | Cc1cnn(CCNCC(=O)NC(c2ccccc2)c2ccccc2)c1 | -16%
66 | CNS(=O)(=O)c1cc(C(=O)NC2CCOc3ccccc32)cc(C)c1C (centres undefined) | 8.79%
67 | CC(=O)c1cccc(S(=O)(=O)NCc2cccnc2N(C)C)c1 | -6.06%
68 | CCCc1cnc(C)nc1N1CCC(Cc2cccc(C(N)=O)c2)C1 (centres undefined) | -2.67%
69 | O=C(Nc1cc(-c2ccccc2)on1)N1CCN(CCO)CC1 | -6.53%

Row | SMILES | cytotoxicity at 70.5 h
70 | CCn1cc(CCC(=O)NCc2csc(C3CC3)n2)c(C)n1 | -11.7%
71 | Cn1ncc2c(NCCOCc3ccccc3)nc(C3CCCC3)nc21 | -3.35%
72 | Cc1cnn(Cc2ccc(NC(=O)N[C@@H]3C=C[C@H](CO)C3)cc2)c1 | -15.1%
73 | Cc1cnn(CC2CCCCN2Cc2noc(C3CC3)n2)c1 (centres undefined) | -6.32%
74 | Cc1ccc2[nH]c(C3CCN(CC(N)=O)CC3)nc2c1 | 9.74%
75 | O=C(CCc1cccs1)N1CCC(Nc2cccnn2)CC1 | 42.7%
76 | O=C(NCC(O)c1cccc(F)c1)C1CCN(C(=O)C2CCC2)CC1 (centres undefined) | -1.02%
77 | COCCCNC(=O)COc1ccccc1C(F)(F)F | -5.58%
78 | CC(C)(O)CN1CCN(C(=O)c2sccc2C2CC2)CC1 | -6.03%
79 | Cc1ccccc1CN(C)C(=O)CCc1nc(-c2nnc[nH]2)no1 | 8.55%
80 | CC(=O)N1CCc2nc(C3CCN(C(=O)c4ccccc4)C3)ncc2C1 (centres undefined) | 0.561%
81 | Cc1ncccc1OC1(C(=O)NCc2noc(C(C)C)n2)CCNCC1 | -5.62%
82 | N[C@@H](C(=O)N1CCN(c2ccccc2Cl)C(=O)C1)c1ccccc1 | -14.1%
83 | CC1CCN(C(=O)c2sccc2-n2cnnn2)CC1 | -4.67%
84 | Cn1c(NCC(=O)N2CCCC2)c(C#N)c(=O)n(C)c1=O | 12.4%
85 | COc1cc(CNC(C)Cn2ccnc2)cc2c1OCCO2 (centres undefined) | 21.5%
86 | CCSCCC(C)N(C)C(=O)c1cc(C)on1 (centres undefined) | -3.26%
87 | CCc1nccn1CCC(=O)N1CC(=O)N(c2ccccc2C)CC1C (centres undefined) | -7.9%
88 | CCc1cnc2c(c1Nc1ccc(OC)cc1)c(=O)n(C)c(=O)n2C | 21.4%
89 | COC(=O)c1ccc(NC(=O)[C@@H]2CCCN2C(=O)c2ccco2)s1 | -7.02%
90 | CN(C)c1ccc(C(=O)N2C[C@@H](CN3CCCCC3)[C@@H](CO)C2)cc1 | -4.9%
91 | O=C(NCc1cn2c(n1)CN(Cc1cccc(F)c1)CC2)C1CCC1 | -3.08%
92 | COc1ccc(C(=O)Nc2ccc3c(c2)C(=O)NC3)cc1Br | -5.4%

Row | SMILES | cytotoxicity at 70.5 h
93 | CC(=O)NCCNC(=O)CN1CCN(Cc2nccn2C)C(C)C1 (centres undefined) | -2.6%
94 | COCC1CN(C(=O)CNC(C)=O)Cc2ncnn2C1 (centres undefined) | -8.02%
95 | COCCNC(=O)c1ccc2c(=O)n3c(nc2c1)CCN(C)CC3 | 7.41%
96 | Cc1ccc(C(=O)N2C[C@@H]3OCCN(CCN4CCCC4)[C@@H]3C2)cn1 | -4.09%
97 | Cc1nc(-c2ccoc2)n(CC(=O)NCC(C)C)c1C | 1.09%
98 | COc1ccc(C(=O)N2CCC(Oc3ccc(C)cc3)(C(=O)O)CC2)o1 | 0.709%
99 | NC(=O)CN(Cc1ccc(Br)cc1)C(=O)c1cnccn1 | -5.94%
100 | CNc1cc(CNC(=O)c2ccccc2)nc(-c2ccncc2)n1 | 11.4%
101 | CC(C)(C)C(O)CN1CCN(C(=O)COCC2CC2)CC1 (centres undefined) | 1.65%
102 | CCS(=O)(=O)c1ccc2c(c1)OCCO2 | -0.357%
103 | c1cnc(N2CCOCC3(CCCN(Cc4cccs4)C3)C2)nc1 (centres undefined) | 19.9%
104 | COCC1c2c(cnn2C)CCN1Cc1ccc(F)cc1 (centres undefined) | -0.871%
105 | O=C(c1cc2c(s1)CCOC2)N1CCCC1Cn1cccn1 (centres undefined) | -8.49%
106 | Cc1ccsc1-c1nccn1CCS(C)(=O)=O | 16.2%
107 | NC(=O)c1cccc(CC2CCN(C(=O)CO)C2)c1 (centres undefined) | -3%
108 | CCc1cnc(CN2CCCC2c2noc(C3CC3)n2)o1 (centres undefined) | -11.3%
109 | c1cc(-c2ccc3c(c2)CCC32CCN(c3nncs3)CC2)co1 | -9.51%
110 | CSc1ncccc1C(=O)N(C)CCc1scnc1C | -8.88%
111 | CCOC(=O)CNC(=O)c1cc2n(n1)CCCO2 | -11.8%
112 | CCOc1ccc(CNCCCn2ccnc2)cc1Br | 6.06%
113 | O=C1CC2(CCN(CCO)CC2)CN1Cc1cc(F)cc(F)c1 | -7.72%
114 | CC(C)C(C)NC(=O)Nc1ccc(CS(C)(=O)=O)cc1 (centres undefined) | -8.12%
